# Results published in PubChem BioAssay (NCI).
#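 Results reflect a 48-hour exposure of cells in 96-well plates to compound at five concentrations. The concentration for 50% growth inhibition is given as GI50. At the TGI there is no net growth.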
# What was measured:
# Assay in all cases: DTP human tumour cell line panel, 48 h
# [1] = test system: MDA-MB-435
# [2] = test system: PC-3 prostate
# [3] = test system: RPMI-8226 leukemia
# [4] = test system: OVCAR-8 ovarian
# [5] = test system: HCC-2998 colon
# [6] = test system: SK-MEL-2 melanoma
# [7] = test system: COLO 205 colon
# [8] = test system: SF-539 CNS
# [9] = test system: SK-OV-3 ovarian
# [10] = test system: M14 melanoma
# [11] = test system: ACHN renal
# [12] = test system: SNB-75 CNS
# [13] = test system: KM12 colon
# [14] = test system: HOP-62 NSCLC
# [15] = test system: UACC-62 melanoma
# [16] = test system: OVCAR-4 ovarian
# [17] = test system: MDA-MB-231 breast
# [18] = test system: SW-620 colon
# [19] = test system: T-47D breast
# [20] = test system: RXF 393 renal
# [21] = test system: SR leukemia
# [22] = test system: SK-MEL-5 melanoma
# [23] = test system: OVCAR-3 ovarian
# [24] = test system: MOLT-4 leukemia
# [25] = test system: CAKI-1 renal
# [26] = test system: NCI-H226 lung
# [27] = test system: SN12C renal
# [28] = test system: DU-145 prostate
# [29] = test system: HS 578T breast
# [30] = test system: A498 renal
# [31] = test system: HT29 colon
# [32] = test system: HOP-92 NSCLC
# [33] = test system: SK-MEL-28 melanoma
# [34] = test system: K-562 leukemia
# [35] = test system: U251 CNS
# [36] = test system: SF-295 CNS
# [37] = test system: SF-268 CNS
# [38] = test system: LOX IMVI melanoma
# [39] = test system: MALME-3M melanoma
# [40] = test system: TK-10 renal
# [41] = test system: UACC-257 melanoma
# [42] = test system: SNB-19 CNS
# [43] = test system: HCT-15 colon
# [44] = test system: NCI-H23 lung
# [45] = test system: UO-31 renal
# [46] = test system: 786-0 renal
# [47] = test system: EKVX NSCLC
# [48] = test system: A549 NSCLC
# [49] = test system: BT-549 breast
# [50] = test system: NCI/ADR-RES ovarian
# [51] = test system: HCT-116 colon
# [52] = test system: OVCAR-5 ovarian
# [53] = test system: NCI-H522 lung
# [54] = test system: MCF7 breast
# [55] = test system: HL-60(TB) leukemia
# [56] = test system: IGROV1 ovarian
# [57] = test system: CCRF-CEM leukemia
# [58] = test system: NCI-H460 lung
smiles,measurement,setting,value
c1ccc2nc3c(cc2c1)Sc1cc2ccccc2[n+]2c1N3CC2,GI50,[1],21.1 µM
same,TGI,[1],65.7 µM
same,GI50,[2],27.4 µM
same,TGI,[2],> 100 µM
same,GI50,[3],15.6 µM
same,TGI,[3],> 100 µM
same,GI50,[4],25.3 µM
same,TGI,[4],> 100 µM
same,GI50,[5],18.5 µM
same,TGI,[5],64.3 µM
same,GI50,[6],17.6 µM
same,TGI,[6],43.9 µM
same,GI50,[7],3.57 µM
same,TGI,[7],25.5 µM
same,GI50,[8],35.9 µM
same,TGI,[8],> 100 µM
same,GI50,[9],> 100 µM
same,TGI,[9],> 100 µM
same,GI50,[10],16.2 µM
same,TGI,[10],45 µM
same,GI50,[11],> 100 µM
same,TGI,[11],> 100 µM
same,GI50,[12],26.9 µM
same,TGI,[12],> 100 µM
same,GI50,[13],11 µM
same,TGI,[13],40.3 µM
same,GI50,[14],20.8 µM
same,TGI,[14],78.1 µM
same,GI50,[15],13.5 µM
same,TGI,[15],28.8 µM
same,GI50,[16],24.7 µM
same,TGI,[16],> 100 µM
same,GI50,[17],31.6 µM
same,TGI,[17],> 100 µM
same,GI50,[18],32.5 µM
same,TGI,[18],> 100 µM
same,GI50,[19],15 µM
same,TGI,[19],64.9 µM
same,GI50,[20],13.7 µM
same,TGI,[20],54.9 µM
same,GI50,[21],13.5 µM
same,TGI,[21],> 100 µM
same,GI50,[22],3.66 µM
same,TGI,[22],20 µM
same,GI50,[23],21.2 µM
same,TGI,[23],> 100 µM
same,GI50,[24],22.1 µM
same,TGI,[24],> 100 µM
same,GI50,[25],64.5 µM
same,TGI,[25],> 100 µM
same,GI50,[26],45 µM
same,TGI,[26],> 100 µM
same,GI50,[27],21.5 µM
same,TGI,[27],> 100 µM
same,GI50,[28],53.9 µM
same,TGI,[28],> 100 µM
same,GI50,[29],18.3 µM
same,TGI,[29],85.1 µM
same,GI50,[30],34.1 µM
same,TGI,[30],> 100 µM
same,GI50,[31],33.8 µM
same,TGI,[31],> 100 µM
same,GI50,[32],27.9 µM
same,TGI,[32],> 100 µM
same,GI50,[33],20.8 µM
same,TGI,[33],83.9 µM
same,GI50,[34],14 µM
same,TGI,[34],> 100 µM
same,GI50,[35],24 µM
same,TGI,[35],> 100 µM
same,GI50,[36],65.7 µM
same,TGI,[36],> 100 µM
same,GI50,[37],23.6 µM
same,TGI,[37],> 100 µM
same,GI50,[38],41.3 µM
same,TGI,[38],> 100 µM
same,GI50,[39],4.17 µM
same,TGI,[39],23.3 µM
same,GI50,[40],36.4 µM
same,TGI,[40],> 100 µM
same,GI50,[41],11.6 µM
same,TGI,[41],34.8 µM
same,GI50,[42],19.7 µM
same,TGI,[42],91.9 µM
same,GI50,[43],> 100 µM
same,TGI,[43],> 100 µM
same,GI50,[44],21.9 µM
same,TGI,[44],> 100 µM
same,GI50,[45],> 100 µM
same,TGI,[45],> 100 µM
same,GI50,[46],43 µM
same,TGI,[46],> 100 µM
same,GI50,[47],21 µM
same,TGI,[47],> 100 µM
same,GI50,[48],11.9 µM
same,TGI,[48],> 100 µM
same,GI50,[49],19.1 µM
same,TGI,[49],> 100 µM
same,GI50,[50],> 100 µM
same,TGI,[50],> 100 µM
same,GI50,[51],30.8 µM
same,TGI,[51],> 100 µM
same,GI50,[52],> 100 µM
same,TGI,[52],> 100 µM
same,GI50,[53],26.7 µM
same,TGI,[53],> 100 µM
same,GI50,[54],8.67 µM
same,TGI,[54],> 100 µM
same,GI50,[55],32.5 µM
same,TGI,[55],> 100 µM
same,GI50,[56],22.8 µM
same,TGI,[56],> 100 µM
same,GI50,[57],26.8 µM
same,TGI,[57],> 100 µM
same,GI50,[58],20.3 µM
same,TGI,[58],63.9 µM
